# Active and inactive are the calls of the source.
# Columns and labels:
# CHO-K1 = assay: (§1) Counterscreen for antagonists of the orexin 1 receptor (OX1R; HCRTR1): Homogeneous time resolved fluorescence (HTRF)-based cell-based dose response assay to identify antagonists of the parental CHO-K1 cell line. [Related pubchem assays (depositor defined):AID434989, AID435008, AID463079, AID485270, AID492963, AID492964, AID492965, AID493232, AID504699, AID504701]; assay type: functional; conditions: Cricetulus griseus
# [1] = as §1, with “Fluorescence-based” for “Homogeneous time resolved fluorescence (HTRF)-based”, “cell-based high throughput” for “cell-based”, “CHO” for “CHO-K1”; assay type: functional
# [2] = biological target: T1, Orexin/Hypocretin receptor type 1 (Homo sapiens, UniProt O43613); assay: Homogeneous Time Resolved Fluorescence (HTRF)-based cell-based high throughput dose response assay for antagonists of the orexin 1 receptor (OX1R; HCRTR1). [Related pubchem assays (depositor defined):AID434989, AID435008, AID463079, AID485270, AID492963, AID492964, AID492965, AID493232, AID504717, AID504718]; assay type: functional
# T1 sequence (O43613 whole entry): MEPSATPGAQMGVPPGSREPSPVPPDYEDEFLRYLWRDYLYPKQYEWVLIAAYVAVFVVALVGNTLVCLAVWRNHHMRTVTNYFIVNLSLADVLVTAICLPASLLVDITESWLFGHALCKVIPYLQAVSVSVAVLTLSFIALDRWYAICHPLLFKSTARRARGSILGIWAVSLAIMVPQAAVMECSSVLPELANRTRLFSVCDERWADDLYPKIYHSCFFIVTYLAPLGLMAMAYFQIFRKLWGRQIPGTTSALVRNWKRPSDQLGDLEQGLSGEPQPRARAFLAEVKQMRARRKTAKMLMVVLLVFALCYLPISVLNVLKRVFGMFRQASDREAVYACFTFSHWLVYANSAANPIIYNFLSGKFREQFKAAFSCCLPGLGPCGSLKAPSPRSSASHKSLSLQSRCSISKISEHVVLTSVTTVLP
# [3] = biological target: T1, Orexin/Hypocretin receptor type 1; assay: Fluorescence-based cell-based high throughput dose response assay for antagonists of the orexin 1 receptor (OX1R; HCRTR1). [Related pubchem assays (depositor defined):AID434989, AID435008, AID463079, AID485270, AID492963, AID492964, AID492965, AID493232, AID504717, AID504718]; assay type: functional
# Orexin receptor type 2 [4] = biological target: T2, Orexin receptor type 2 (Homo sapiens, UniProt O43614); assay: Counterscreen assay for antagonists of the orexin 1 receptor (OX1R; HCRTR1): Fluorescence-based cell-based dose response assay for antagonists of the orexin 2 receptor (OX2R; HCRTR2), run by assay provider.; assay type: functional
# Orexin receptor type 2 [5] = biological target: T2, Orexin receptor type 2; assay: Counterscreen assay for antagonists of the orexin 1 receptor (OX1R; HCRTR1): Homogeneous Time Resolved Fluorescence (HTRF)-based cell-based dose response assay for antagonists of the orexin 2 receptor (OX2R; HCRTR2), run by assay provider.; assay type: functional
# [6] = Mcl1-dependent cancer cell viability – HMC-1-8 cells, luminescence, dry powder, selectivity assay for A1 inhibitor project, dose response (AID 504415); assay type: functional, cell-based; conditions: Homo sapiens
# [7] = suppression of NO production in INS-1E cells – cell-based, Griess absorbance, dry powder, set 3, dose response (AID 488870); assay type: functional; conditions: Rattus norvegicus
# INS1 [8] = assay: suppression of NO production in INS-1E cells – cell-based, Griess absorbance, dry powder, set 2, dose response (AID 488868); assay type: functional; conditions: Rattus norvegicus
# INS1 [9] = assay: cellular ATP toxicity in rat beta cells – cell-based, CellTiter-Glo luminescence, INS-1E, dry powder, cytotoxicity control for beta-cell cytokine protection project, dose response (AID 488864); assay type: functional
# [10] = A549 cell cytotoxicity, dose response, cytotoxicity control, plate reader, cherry-pick, antagonist series (AID 743412); assay type: functional, cell-based
# [11] = toxicity toward HepG2 liver cells – cell-based, plate reader, cherry-pick, antagonist series, cytotoxicity control, dose response (AID 743416); assay type: functional
# [12] = blockers of bursicon-stimulated LGR2 cAMP reporter – cell-based, HEK293, CRE-luciferase reporter, cherry pick, set 2, dose response (AID 743343); assay type: functional;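 also: transfected cells were stimulated with diluted bursicon conditioned medium after compound addition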
# [13] = blockade of melanocortin 4 receptor signaling – cell-based, plate reader, cherry pick, counter-screen for LGR2 antagonist project, dose response (AID 743444); assay type: functional;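 also: transfected HEK 293 cells stimulated with alpha-MSH peptide; potency of inhibitors of the alpha-MSH evoked signal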
# [14] = viability loss in HEK293 cells – cell-based, plate reader, cherry-picked samples, cytotoxicity control, dose response (AID 743446); assay type: functional
# T2 sequence (O43614 whole entry): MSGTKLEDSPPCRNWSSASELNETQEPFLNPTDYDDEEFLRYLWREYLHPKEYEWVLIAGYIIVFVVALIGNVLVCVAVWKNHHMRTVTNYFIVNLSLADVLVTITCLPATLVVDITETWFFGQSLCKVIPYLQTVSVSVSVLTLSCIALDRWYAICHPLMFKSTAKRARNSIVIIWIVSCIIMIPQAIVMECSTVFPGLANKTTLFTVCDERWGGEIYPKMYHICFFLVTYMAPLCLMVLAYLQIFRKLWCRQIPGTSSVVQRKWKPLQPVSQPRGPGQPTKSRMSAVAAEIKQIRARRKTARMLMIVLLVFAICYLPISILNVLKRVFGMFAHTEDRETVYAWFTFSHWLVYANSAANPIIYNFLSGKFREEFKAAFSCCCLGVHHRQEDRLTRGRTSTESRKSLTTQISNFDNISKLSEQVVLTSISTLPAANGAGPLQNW
smiles,measurement,setting,value
O=C(O)CCn1c(SCCOc2ccccc2)nc2ccccc21,IC50,CHO-K1,> 66.2 µM (inactive)
same,IC50,[1],> 49.7 µM (inactive)
same,IC50,[2],687 nM (active)
same,IC50,[3],23 µM (inactive)
same,IC50,Orexin receptor type 2 [4],> 88.8 µM (inactive)
same,IC50,Orexin receptor type 2 [5],> 50 µM (inactive)
Cc1ccc(Sc2c([N+](=O)[O-])c(=O)oc3ccccc23)cc1,AC50,[6],37.1 µM (active)
COc1ccc(S(=O)(=O)N(C)C[C@@H]2Oc3c(NC(=O)c4nc5ccccc5s4)cccc3C(=O)N([C@@H](C)CO)C[C@H]2C)cc1,AC50,[7],38.6 µM (active)
same,AC50,INS1 [8],30.7 µM (active)
same,AC50,INS1 [9],32.7 µM (active)
same,AC50,[10],15 µM (active)
same,AC50,[11],23.7 µM (active)
same,AC50,[12],9.82 µM (active)
same,AC50,[13],28.8 µM (active)
same,AC50,[14],> 52 µM (inactive)

# — ChEMBL document CHEMBL1201862, “PubChem BioAssay data set” (2004)
